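Growth conditions: 96-well plates. Treatment: test compound, 48 hours, 5 concentrations. Analysis: linear interpolation between bracketing concentrations; unreached endpoints set to highest concentration. Abbreviation: GI50, concentration required for 50% inhibition of growth.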 The source made the active and inactive calls. Cut-off read from the data, not from the text of the source: active = GI50 up to about 1.1 µM and inactive = higher.
Assays:
Test in all cases: NCI-60 cell line screen, 48 h
A549 = tested on: A549
CAKI-1 = tested on: CAKI-1
COLO 205 = tested on: COLO 205
HCC 2998 = tested on: HCC 2998
HCT-116 = tested on: HCT-116
HCT-15 = tested on: HCT-15
HL-60 = tested on: HL-60
Hs-578T = tested on: Hs-578T
MDA-MB-435 = tested on: MDA-MB-435
MOLT-4 = tested on: MOLT-4
Malme-3M = tested on: Malme-3M
OVCAR-3 = tested on: OVCAR-3
SF-295 = tested on: SF-295
SF-539 = tested on: SF-539
SK-MEL-5 = tested on: SK-MEL-5
SNB-75 = tested on: SNB-75
SR = tested on: SR
SW-620 = tested on: SW-620
U-251 = tested on: U-251

Row | SMILES | GI50 (A549) | GI50 (CAKI-1) | GI50 (COLO 205) | GI50 (HCC 2998) | GI50 (HCT-116) | GI50 (HCT-15) | GI50 (HL-60) | GI50 (Hs-578T) | GI50 (MDA-MB-435) | GI50 (MOLT-4) | GI50 (Malme-3M) | GI50 (OVCAR-3) | GI50 (SF-295) | GI50 (SF-539) | GI50 (SK-MEL-5) | GI50 (SNB-75) | GI50 (SR) | GI50 (SW-620) | GI50 (U-251)
1 | COC(=O)c1ccccc1NC(=O)/C(=N\NC(C)(C)C)C(C#N)c1nc(-c2ccc([N+](=O)[O-])cc2)cs1 (centres undefined) | > 100 µM (inactive) | > 100 µM (inactive) | > 100 µM (inactive) | > 100 µM (inactive) | > 100 µM (inactive) | > 100 µM | > 100 µM (inactive) | > 100 µM (inactive) | > 100 µM (inactive) | > 100 µM (inactive) | > 100 µM (inactive) | > 100 µM (inactive) | > 100 µM (inactive) | > 100 µM (inactive) | > 100 µM (inactive) | > 100 µM (inactive) | > 100 µM (inactive) | > 100 µM (inactive) | > 100 µM (inactive)
2 | CC1=C2C(=O)c3ccccc3C(=O)[C@H]2C[C@@H](N2CCCC2=O)O1 | 43.1 µM (inactive) | 77.3 µM (inactive) | 79.1 µM (inactive) | > 100 µM (inactive) |  | 49.2 µM | 40.8 µM (inactive) | 94.8 µM (inactive) | 18.5 µM (inactive) | 32.1 µM (inactive) | 17.4 µM (inactive) | 26.5 µM (inactive) | 66.8 µM (inactive) | 25.5 µM (inactive) | 17.1 µM (inactive) | 15.3 µM (inactive) | 32.2 µM (inactive) | 23.8 µM (inactive) | 28 µM (inactive)
3 | CCOc1ccc(/N=N/c2ccc3cc(/C(C)=N/NC(=O)/C(C#N)=C\c4ccc(N(CCC#N)CCC#N)cc4)c(=O)oc3c2)cc1 | > 10 µM (inactive) | > 10 µM (inactive) | > 10 µM (inactive) | > 10 µM (inactive) | > 10 µM (inactive) | > 10 µM | > 10 µM (inactive) | > 10 µM (inactive) | > 10 µM (inactive) | > 10 µM (inactive) | > 10 µM (inactive) | > 10 µM (inactive) | > 10 µM (inactive) | > 10 µM (inactive) | > 10 µM (inactive) | 1.86 µM (inactive) | > 10 µM (inactive) | > 10 µM (inactive) | > 10 µM (inactive)
4 | COC(=O)c1c2c(cc3c1CC1(C3)Cc3ccc4c(c3C1=O)CCC4)CCC2 (centres undefined) | 4.88 µM (inactive) | 2.26 µM (inactive) | 2.37 µM (inactive) | 6.52 µM (inactive) | 3.01 µM (inactive) | 3.58 µM | 2.52 µM (inactive) | 1.91 µM (inactive) | 0.6 µM (active) | 4.41 µM (inactive) | 3.39 µM (inactive) | 1.94 µM (inactive) | 2.12 µM (inactive) | 2.38 µM (inactive) | 2.38 µM (inactive) | 4.33 µM (inactive) | 1.78 µM (inactive) | 4.07 µM (inactive) | 3.33 µM (inactive)
5 | CC1=C[C@@H](C)C[C@]2(C)CC[C@H](O2)[C@]23CC[C@](C(=O)O)(C[C@H](O2)[C@@H]2O[C@@](C)(CC2=O)[C@@H](O)[C@H]2CC[C@@]4(CCC[C@@H](O4)[C@H](C)C(=O)O[C@H]4C[C@H]([C@]5(O)OCC[C@H](C)[C@@H]5O)O[C@H]4C=C1)O2)O3 | > 10 µM (inactive) | > 10 µM (inactive) | > 8.55 µM (inactive) | > 10 µM (inactive) | > 10 µM (inactive) | > 10 µM | > 10 µM (inactive) | > 3.78 µM (inactive) | > 10 µM (inactive) | > 10 µM (inactive) | > 10 µM (inactive) | > 10 µM (inactive) | > 5.86 µM (inactive) | > 5.82 µM (inactive) | > 7.23 µM (inactive) | 3.5 µM (inactive) | > 10 µM (inactive) | > 10 µM (inactive) | > 10 µM (inactive)
